Values joined by “and” are separate entries in the source; they are usually repeats but may differ in a detail not shown here. Equal values may be shown once. Where a name gives a salt, the structure may show the parent alone.

The melting point is the temperature of the solid-liquid transition. With `COc1cc(OC)cc(C(CCNC(C)C)c2ccc3ncc(-c4cnn(C)c4)nc3c2)c1` (single isomer, unassigned) (as salt: oxalic acid salt) [Compound 19a], the melting point was 163 °C and 162 °C.

The compound `COc1cc(OC)cc(C(CCNC(C)C)c2ccc3ncc(-c4cnn(C)c4)nc3c2)c1` (single isomer, unassigned) (as salt: oxalic acid salt) [Compound 32a] had a melting point of 172 °C.

In turn, `COc1cc(OC)cc(C(CC(C)=O)c2ccc3ncc(-c4cnn(C)c4)nc3c2)c1` (stereo not drawn) [Compound 16] had a melting point of 154 °C.

(Values after patent publication US9290478B2, “Substituted quinoxalines as FGFR kinase inhibitors” (ASTEX THERAPEUTICS LTD, priority 2010, dated 2016).)
